Measurements published in ChEMBL document CHEMBL1135048, “Synthesis and biological evaluation of 2-indolyloxazolines as a new class of tubulin polymerization inhibitors. Discovery of A-289099 as an orally active antitumor agent” (Bioorg Med Chem Lett, 2002).
In brackets after ≈: the same amount, converted by molar mass. Values belong to the molecule of their own block, whether it stands above or below them.

How the values were obtained:
HCT-15 [1] = assay: Antiproliferative activity against the MDR positive human colon adenocarcinoma cell line HCT-15; assay type: functional, cell-based
[2] = Oral bioavailability in rat (dose single 10 mg/kg); assay type: ADME, organism-based; details: in vivo
NCI-H460 = assay: Antiproliferative activity against the human non small cell lung carcinoma cell line NCI-H460; assay type: functional, cell-based
[3] = (§1) Inhibition of bovine brain microtubule polymerization; assay type: functional, Bos taurus
[4] = Half life period in dog after 5 mg/kg dose; assay type: ADME, organism-based, Canis lupus familiaris; design: dose 5 mg/kg; details: in vivo
HCT-15 [5] = assay: Inhibitory concentration of compound against of microtubule […] in human HCT-15 colon carcinoma; assay type: functional, cell-based
Mus musculus [6] = assay: In vivo efficacy to delay 1 g volume of M5076 murine ovarian sarcoma formation in mice at a dose of 50 mg/Kg/day; assay type: functional
Mus musculus [7] = assay: Increase in life span of M5076 murine ovarian sarcoma bearing mice at a dose of 50 mg/Kg/day; assay type: functional
[8] = Oral bioavailability in mouse (dose 10 mg/kg); assay type: ADME, organism-based; details: in vivo
[9] = Oral bioavailability in dog (dose 5 mg/kg); assay type: ADME, organism-based, Canis lupus familiaris; details: in vivo
Mus musculus [10] = assay: Increase in life span of M5076 murine ovarian sarcoma bearing mice at a dose of 100 mg/kg/day; assay type: functional
[11] = Partition coefficient of compound; assay type: physicochemical; details: octanol/water
[12] = Oral bioavailability in monkey (dose 5 mg/kg); assay type: ADME, organism-based; details: cercopithecidae, in vivo
Mus musculus [13] = assay: In vivo efficacy to delay 1 g volume of M5076 murine ovarian sarcoma formation in mice at a dose of 100 mg/Kg/day; assay type: functional
[14] = pKa of the compound; assay type: physicochemical
[15] = Area under curve value in rat at a dose of 5 mg/kg; assay type: ADME, organism-based; design: dose 5 mg/kg; details: in vivo
[16] = Solubility of compound in pH 7.4 phosphate buffer; assay type: physicochemical
[17] = Half life period in monkey after 5 mg/kg dose; assay type: ADME, organism-based; design: dose 5 mg/kg; details: cercopithecidae, in vivo
A549 = assay: Activity against human lung cancer with mutated beta-tubulin (A549-T2415); assay type: functional, cell-based
[18] = Half life period in rat after 5 mg/kg dose; assay type: ADME, organism-based; design: dose 5 mg/kg; details: in vivo
[19] = Solubility of compound in 0.1 M HCl; assay type: physicochemical; details: read-out: S
[20] = Area under curve value in monkey at a dose of 5 mg/kg; assay type: ADME, organism-based; design: dose 5 mg/kg; details: cercopithecidae, in vivo
[21] = Half life period in mouse after 10 mg/kg dose; assay type: ADME, organism-based; design: dose 10 mg/kg; details: in vivo
[22] = Area under curve value in dog at a dose of 5 mg/kg; assay type: ADME, organism-based, Canis lupus familiaris; design: dose 5 mg/kg; details: in vivo
[23] = Oral bioavailability in rat (dose 5 mg/kg; assay type: ADME, organism-based; details: in vivo
[24] = Area under curve value in mouse at a dose of 10 mg/kg; assay type: ADME, organism-based; design: dose 10 mg/kg; details: in vivo
Bos taurus = organism: Bos taurus; assay: as §1; assay type: functional
Tubulin beta chain [25] = biological target: T1, Tubulin beta chain (Bos taurus, UniProt Q6B856); assay: Binding constant at colchicine site of bovine brain tubulin
[26] = Half life period in mouse after 10 mg/Kg dose; assay type: ADME, organism-based; details: in vivo
[27] = Half life period in rat after 5 mg/Kg dose; assay type: ADME, organism-based; details: in vivo
Tubulin beta chain [28] = biological target: T1, Tubulin beta chain; assay: Activity towards binding at colchicine site of bovine brain tubulin

T1 sequence (Q6B856 whole entry): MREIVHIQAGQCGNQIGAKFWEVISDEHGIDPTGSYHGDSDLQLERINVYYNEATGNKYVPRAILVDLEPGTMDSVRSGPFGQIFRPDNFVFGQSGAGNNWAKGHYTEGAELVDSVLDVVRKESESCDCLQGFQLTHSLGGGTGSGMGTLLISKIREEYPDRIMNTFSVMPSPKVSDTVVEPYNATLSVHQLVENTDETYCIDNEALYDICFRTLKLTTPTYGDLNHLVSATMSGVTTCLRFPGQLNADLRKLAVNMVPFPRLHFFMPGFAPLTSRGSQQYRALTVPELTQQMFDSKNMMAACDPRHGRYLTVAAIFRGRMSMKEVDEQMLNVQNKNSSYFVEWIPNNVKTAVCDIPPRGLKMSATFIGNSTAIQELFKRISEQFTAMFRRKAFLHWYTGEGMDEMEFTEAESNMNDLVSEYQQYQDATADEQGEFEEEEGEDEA

Structure (SMILES): COc1cc(C2CN=C(c3cccc4cc[nH]c34)O2)cc(OC)c1OC (centres undefined)
IC50 (HCT-15 [1]): 540 nM
bioavailability [2]: 0%
IC50 (NCI-H460): 470 nM

Structure (SMILES): COc1cc([C@H]2CN=C(c3ccc4c(ccn4C)c3)O2)cc(OC)c1OC
IC50 (HCT-15 [1]): 8.6 nM
IC50 [3]: 2300 nM
half-life [4]: 3.3 h
Concentration (HCT-15 [5]): 44 nM
Mean tumor delay (Mus musculus [6]): 19 days
ILS at 50 mg/kg/day (Mus musculus [7]): 139%
bioavailability [8]: 15.1%
bioavailability [9]: 6.5%
ILS at 100 mg/kg/day (Mus musculus [10]): 206%
logD [11]: 3.94
bioavailability [12]: 18.6%
Mean tumor delay (Mus musculus [13]): 28.4 days
pKa [14]: 5
AUC [15]: 7180 ng·h/mL
solubility [16]: 0.7 µg/mL (≈ 1.91 µM)
IC50 (NCI-H460): 6.2 nM
half-life [17]: 1.3 h
IC50 (A549): 6.3 nM
half-life [18]: 2.1 h
solubility [19]: 1270 µg/mL (≈ 3470 µM)
AUC [20]: 1750 ng·h/mL
half-life [21]: 1.1 h
AUC [22]: 160 ng·h/mL
bioavailability [23]: 17.1%
AUC [24]: 5690 ng·h/mL

Structure (SMILES): COc1cc(C2CN=C(c3cccc4[nH]ccc34)O2)cc(OC)c1OC (centres undefined)
IC50 (HCT-15 [1]): 61 nM
bioavailability [2]: 0%
IC50 (NCI-H460): 57 nM

Structure (SMILES): COc1cc(C2CN=C(c3c[nH]c4ccccc34)O2)cc(OC)c1OC (centres undefined)
IC50 (HCT-15 [1]): 67 nM
bioavailability [2]: 0%
IC50 (NCI-H460): 82 nM

Structure (SMILES): COc1ccc(/C=C\c2cc(OC)c(OC)c(OC)c2)cc1O [COMBRETASTATIN A4]
IC50 (Bos taurus): 1600 nM

Structure (SMILES): COc1cc(C2CN=C(c3ccc4cc(C)cn4c3)O2)cc(OC)c1OC (centres undefined)
IC50 (HCT-15 [1]): 520 nM
IC50 (NCI-H460): 520 nM

Structure (SMILES): COc1cc(C2CN=C(c3cnc4ccccc4c3)O2)cc(OC)c1OC (centres undefined)
IC50 (HCT-15 [1]): 160000 nM
IC50 (NCI-H460): 270000 nM

Structure (SMILES): COc1cc(C2CN=C(c3cc4ccccc4[nH]3)O2)cc(OC)c1OC (centres undefined)
IC50 (HCT-15 [1]): 150 nM
bioavailability [2]: 40%
IC50 (NCI-H460): 350 nM

Structure (SMILES): COc1cc(C2CN=C(c3ccc4[nH]c(O)nc4c3)O2)cc(OC)c1OC (centres undefined)
IC50 (HCT-15 [1]): 1200 nM
IC50 (NCI-H460): > 100000 nM

Structure (SMILES): COc1cc(C2CN=C(c3ccc4[nH]cnc4c3)O2)cc(OC)c1OC (centres undefined)
IC50 (HCT-15 [1]): 6400 nM
IC50 (NCI-H460): 7100 nM

Structure (SMILES): COc1cc(C2CN=C(c3ccc4nccn4c3)O2)cc(OC)c1OC (centres undefined)
IC50 (HCT-15 [1]): 40000 nM
IC50 (NCI-H460): 16000 nM

Structure (SMILES): COc1cc(C2CN=C(c3cn(C)c4ccccc34)O2)cc(OC)c1OC (centres undefined)
IC50 (HCT-15 [1]): 37 nM
bioavailability [2]: 2.5%
IC50 (NCI-H460): 87 nM

Structure (SMILES): COc1cc2c(c(OC)c1OC)-c1ccc(OC)c(=O)cc1[C@@H](NC(C)=O)CC2 [COLCHICINE]
IC50 (HCT-15 [1]): 140 nM
IC50 (NCI-H460): 46 nM

Structure (SMILES): COc1cc(C2CN=C(c3cc4ccccc4n3C)O2)cc(OC)c1OC (centres undefined)
IC50 (HCT-15 [1]): 660 nM
IC50 (NCI-H460): 1500 nM

Structure (SMILES): COc1cc(C2CN=C(c3ccnc4ccccc34)O2)cc(OC)c1OC (centres undefined)
IC50 (HCT-15 [1]): 44000 nM
IC50 (NCI-H460): 37000 nM

Structure (SMILES): CC[C@]1(O)C[C@@H]2CN(CCc3c([nH]c4ccccc34)[C@@](C(=O)OC)(c3cc4c(cc3OC)N(C)[C@H]3[C@@](O)(C(=O)OC)[C@H](OC(C)=O)[C@]5(CC)C=CCN6CC[C@]43[C@@H]65)C2)C1 [VINBLASTINE]
IC50 (HCT-15 [1]): 43 nM
IC50 [3]: 1000 nM
IC50 (NCI-H460): 3.4 nM
Ki (Tubulin beta chain [25]): > 100000 nM

Structure (SMILES): COc1cc(C2CN=C(c3ccc4c(c3)nc(C)n4C)O2)cc(OC)c1OC (centres undefined)
IC50 (HCT-15 [1]): 1300 nM
IC50 (NCI-H460): 1200 nM

Structure (SMILES): COc1cc(C2CN=C(c3ccc4c(c3)CCN4C)O2)cc(OC)c1OC (centres undefined)
IC50 (HCT-15 [1]): 510 nM
IC50 (NCI-H460): 810 nM

Structure (SMILES): COc1cc(C2CN=C(c3ccc4[nH]ccc4c3)O2)cc(OC)c1OC (centres undefined)
IC50 (HCT-15 [1]): 200 nM
bioavailability [2]: 38.1%
IC50 (NCI-H460): 100 nM

Structure (SMILES): COc1cc(C2OC(c3ccc(N)c(C)c3)=NN2C(C)=O)cc(OC)c1OC (centres undefined)
IC50 (Tubulin beta chain [28]): 3400 nM

Structure (SMILES): COc1cc(C2CN=C(c3ccc4ncccc4c3)O2)cc(OC)c1OC (centres undefined)
IC50 (HCT-15 [1]): 2400 nM
IC50 (NCI-H460): 3200 nM

Structure (SMILES): CC(=O)O[C@H]1C(=O)[C@@]2(C)[C@H]([C@H](OC(=O)c3ccccc3)[C@]3(O)C[C@H](OC(=O)[C@H](O)[C@@H](NC(=O)c4ccccc4)c4ccccc4)C(C)=C1C3(C)C)[C@]1(OC(C)=O)CO[C@@H]1C[C@@H]2O [PACLITAXEL]
IC50 (NCI-H460): > 10 nM

Structure (SMILES): COc1cc(C2CN=C(c3ccc4cncn4c3)O2)cc(OC)c1OC (centres undefined)
IC50 (HCT-15 [1]): 28000 nM
IC50 (NCI-H460): 100000 nM

Structure (SMILES): COc1cc(C2CN=C(c3ccc4cc[nH]c4c3)O2)cc(OC)c1OC (centres undefined)
IC50 (HCT-15 [1]): 120 nM
bioavailability [2]: 10.5%
IC50 (NCI-H460): 330 nM

Continued, values first:

IC50 (HCT-15 [1]): 480 nM
bioavailability [2]: 34.3%
IC50 (NCI-H460): 680 nM
Structure (SMILES): COCn1ccc2cc(C3=NCC(c4cc(OC)c(OC)c(OC)c4)O3)ccc21 (centres undefined)

IC50 (HCT-15 [1]): 16 nM
bioavailability [2]: 34.7%
IC50 (NCI-H460): 14 nM
Structure (SMILES): COc1cc(C2CN=C(c3ccc4c(ccn4C)c3)O2)cc(OC)c1OC (centres undefined)

IC50 (HCT-15 [1]): 2900 nM
bioavailability [2]: 55.8%
IC50 (NCI-H460): 2900 nM
Structure (SMILES): COc1cc(C2CN=C(c3ccc4c(ccn4C4CC4)c3)O2)cc(OC)c1OC (centres undefined)

IC50 (HCT-15 [1]): 15000 nM
IC50 (NCI-H460): 150000 nM
Structure (SMILES): COc1cc(C2CN=C(c3cccc4ccn(C)c34)O2)cc(OC)c1OC (centres undefined)

IC50 (HCT-15 [1]): 16300 nM
IC50 (NCI-H460): 8180 nM
Structure (SMILES): COc1cc(C2CN=C(c3ccc4c(ccn4S(C)(=O)=O)c3)O2)cc(OC)c1OC (centres undefined)

IC50 (HCT-15 [1]): 37 nM
bioavailability [2]: 2.5%
IC50 (NCI-H460): 87 nM
Structure (SMILES): COc1cc(C2CN=C(c3cccc4c3ccn4C)O2)cc(OC)c1OC (centres undefined)

IC50 (HCT-15 [1]): 3800 nM
bioavailability [2]: 19.8%
IC50 (NCI-H460): 4200 nM
Structure (SMILES): COc1cc(C2CN=C(c3ccc4c(ccn4CC(F)(F)F)c3)O2)cc(OC)c1OC (centres undefined)

IC50 (HCT-15 [1]): 70 nM
bioavailability [2]: 11.1%
IC50 (NCI-H460): 49 nM
Structure (SMILES): CCn1ccc2cc(C3=NCC(c4cc(OC)c(OC)c(OC)c4)O3)ccc21 (centres undefined)

IC50 (HCT-15 [1]): 170 nM
IC50 (NCI-H460): 210 nM
Structure (SMILES): COc1cc(C2CN=C(c3ccc4c(c3)cc(C)n4C)O2)cc(OC)c1OC (centres undefined)

IC50 (HCT-15 [1]): 390 nM
IC50 [3]: 740000 nM
half-life [4]: 2.9 h
half-life [26]: 1.3 h
bioavailability [8]: 21%
bioavailability [9]: 7%
bioavailability [12]: 16.2%
AUC [15]: 3040 ng·h/mL
IC50 (NCI-H460): 460 nM
half-life [17]: 1.4 h
AUC [20]: 890 ng·h/mL
half-life [27]: 1.3 h
AUC [22]: 330 ng·h/mL
bioavailability [23]: 44%
AUC [24]: 400 ng·h/mL
Structure (SMILES): COc1cc([C@@H]2CN=C(c3ccc4c(ccn4C)c3)O2)cc(OC)c1OC

IC50 (HCT-15 [1]): 280 nM
bioavailability [2]: 0%
IC50 (NCI-H460): 420 nM
Structure (SMILES): COc1cc(C2CN=C(c3ccc4ccn(C)c4c3)O2)cc(OC)c1OC (centres undefined)
